The assay deals with Glycogen synthase kinase-3 alpha (Homo sapiens) (UniProt P49840). In words: concentration-response blocking of human GSK3A – biochemical, luminescence, cell-free homogeneous, retest, dose response (AID 463203). To be noted: GSK-3 alpha enzyme, ADP-Glo luminescence, 60 min. On the technique in general: In ADP-Glo the light output rises with the ADP produced.

Consider 73 compounds from PubChem BioAssay AID463203 (Broad Institute, 2010).

The structures appear in SMILES notation. Calls of active or inactive are those of the source.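 Rule for the calls: active = more than half of replicate measurements showing over 20% loss of kinase signal relative to plate controls; inconclusive = some but at most half of replicates over 20% loss; inactive = no replicate over 20% signal loss.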

Usually AC50 stands for the concentration at which the activity in the assay is half-maximal.

Chain of Glycogen synthase kinase-3 alpha (Homo sapiens) (P49840 whole entry, looked up): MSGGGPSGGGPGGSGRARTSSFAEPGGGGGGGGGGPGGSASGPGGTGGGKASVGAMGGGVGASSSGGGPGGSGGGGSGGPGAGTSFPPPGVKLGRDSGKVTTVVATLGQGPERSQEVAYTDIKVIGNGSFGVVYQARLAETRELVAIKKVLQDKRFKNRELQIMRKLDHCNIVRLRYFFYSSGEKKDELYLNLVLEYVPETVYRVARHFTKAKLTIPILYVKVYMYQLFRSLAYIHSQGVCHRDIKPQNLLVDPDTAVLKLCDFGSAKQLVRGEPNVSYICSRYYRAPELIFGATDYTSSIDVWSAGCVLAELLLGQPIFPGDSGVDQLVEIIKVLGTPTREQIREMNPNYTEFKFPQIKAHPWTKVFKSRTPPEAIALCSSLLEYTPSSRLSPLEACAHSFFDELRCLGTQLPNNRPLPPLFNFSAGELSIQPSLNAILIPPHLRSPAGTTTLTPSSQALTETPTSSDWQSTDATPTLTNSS

Take `CCCCc1ccc(NC(=O)N[C@H](C(=O)O)C(C)C)cc1`: the AC50 is > 30 µM (inactive). For `NC(=O)NCC12CC3CC(CC(C3)C1)C2`, the AC50 was > 30 µM (inactive). For `CCOc1cccc2sc(=NC(=O)c3ccco3)n(CC(=O)OC)c12`, the half-maximal activity concentration (AC50) was 7.61 µM. The value for `N#CCCN(Cc1ccccc1)S(=O)(=O)c1cccs1` was > 30 µM (inactive). Turning to `O=C(c1ccco1)N(Cc1ccccc1)c1cccc([N+](=O)[O-])c1`, the AC50 is > 30 µM (inactive). With `CCNC(=S)NNC(=O)Cc1ccccc1` the figure was > 30 µM (inactive).

With `Cc1ccc(-c2nc3n(n2)Cc2ccccc2-3)cc1`, the AC50 was > 30 µM (inactive). Turning to `O=C1NC(=O)/C(=C/c2ccc(-c3cc(C(=O)O)ccc3Cl)o2)S1`, the AC50 was 13.5 µM. Consider `COc1cc(NC(=O)c2cc([N+](=O)[O-])ccc2NC(=O)CNC2CCCCC2)cc(OC)c1`, for which the AC50 is > 30 µM (inactive). The value for `Cc1ccc(N2CC(C(=O)Nc3ncc([N+](=O)[O-])s3)CC2=O)cc1` (stereo not drawn) was 11.4 µM; that for `S=C(Nc1ccccc1)Nc1ccc2cn[nH]c2c1` was 24.9 µM; that for `C=CCn1c(O)c(C=NC2CCN(Cc3ccccc3)CC2)c(=O)[nH]c1=O` was > 30 µM (inactive).

Regarding `Cc1ccc(C(=O)c2cnc3cc4c(cc3c2S(=O)(=O)c2ccccc2)OCCO4)cc1`, the AC50 is > 30 µM (inactive). With `CN1/C(=C\C=C(/C#N)C(=O)Nc2ccccc2F)C(C)(C)c2ccccc21` the figure was > 30 µM (inactive); with `O=C(Nc1ncc([N+](=O)[O-])s1)C1CC(=O)N(c2ccc(F)cc2)C1` (stereo not drawn), 12.4 µM. As to `CN(C)C(=O)Oc1ccc2c(c1)O/C(=C\c1cccc([N+](=O)[O-])c1)C2=O`, the AC50 was > 30 µM (inactive). Turning to `Cc1noc(C)c1CSc1nnc(-c2ccccc2)o1`, the AC50 is > 30 µM (inactive).

Regarding `COc1ccc(C(=O)O/N=C(\N)c2ccccn2)c(OC)c1`, the AC50 was > 30 µM (inactive).

`Cc1c(C(=O)OC(C)C)[nH]c2c1C(=O)CCC2`: the AC50 was > 30 µM (inactive). With `Cc1cc2c(C)c(C)c(=O)[nH]c2cc1N` the figure was > 30 µM (inactive); with `COC(=O)c1cnn(C(=O)c2ccccc2Br)c1N`, > 30 µM (inactive); with `CCOC(=O)/C(C#N)=C/c1cn(CCC(=O)O)nc1-c1cccc(Br)c1`, > 30 µM (inactive).

For `C/C(=N\NC(=O)c1nnn(-c2nonc2N)c1CN1CCCCCC1)c1ccc(Br)cc1`, the AC50 was 29.7 µM.

As for `COc1ccccc1N=c1oc2cc(O)ccc2cc1C(N)=O`, the AC50 was 4.68 µM. With `COc1ccccc1N1CCN(C(=O)c2cc(-c3ccccc3)on2)CC1` the figure was > 30 µM (inactive); with `CCOC(=O)c1ccc(NC(=S)NCCc2ccccc2)cc1`, > 30 µM (inactive). For `CCc1ccc(NC(=O)N[C@H](C(=O)O)C(C)CC)cc1` (stereo partly drawn), the AC50 is > 30 µM (inactive). The value for `O=C(NC(=S)Nc1cccc2cnccc12)c1ccccc1` was > 30 µM (inactive); that for `Cc1cn(C2OC(CC(=O)Oc3ccccc3)C(O)C2O)c(=O)[nH]c1=O` (stereo not drawn) was 19.1 µM. Regarding `CSc1ccc(/C=N/NC(=O)c2ccccc2Cl)cc1`, the AC50 is > 30 µM (inactive). Turning to `CN(C)/N=C/c1cn(-c2ccccc2)nc1-c1cccnc1`, the AC50 is > 30 µM (inactive). With `CCOc1ccc(-c2ncncc2-c2ccc(OC)cc2)c(O)c1` the figure was > 30 µM (inactive); with `Cn1c(=O)c2c([nH]c(=O)n2C)n(Cc2ccccc2)c1=O`, > 30 µM (inactive); with `CC1CCC[C@H](O)CCCCCc2cc(O)cc(O)c2C(=O)O1` (stereo partly drawn), > 30 µM (inactive). The value for `S=C(NCCC1=CCCCC1)Nc1ccccc1` was > 30 µM (inactive); that for `Cc1ccc(C2C(C#N)=C(N)Oc3nc(-c4ccccc4)[nH]c32)o1` (stereo not drawn) was > 30 µM (inactive). The value for `CC(=O)Nc1ccc(NC(=O)CSc2nnc(-c3ccc4c(c3)OCO4)o2)cc1` was 2.61 µM; that for `O=C(c1ccco1)c1cn(CC(=O)N2CCCCC2)c2ccccc12` was > 30 µM (inactive). Regarding `Cc1ccc2nc(Cl)c(/C=N/Nc3ccc(C(=O)O)cc3)cc2c1`, the AC50 is > 30 µM (inactive). With `Cc1nnc(NC(=O)c2cccc(S(=O)(=O)N3CC(c4ccccc4)CC3=O)c2)s1` (stereo not drawn) the figure was > 30 µM (inactive); with `COc1cccc(/C=N/Nc2ccc([N+](=O)[O-])cn2)c1O`, > 30 µM (inactive); with `O=C(NC1(C(F)(F)F)NC(=O)N(Cc2cccnc2)C1=O)c1ccncc1` (stereo not drawn), > 30 µM (inactive). With `Brc1ccccc1C1=Nn2c(nnc2-c2ccccc2)SC1` the figure was > 30 µM (inactive). The value for `CCOC(=O)CC1COc2ccccc2N1C(=O)c1ccc(C)cc1` (stereo not drawn) was > 30 µM (inactive); that for `c1ccc2sc(-c3ccc4c(c3)OCO4)nc2c1` was > 30 µM (inactive). As to `CC(C)c1c(C(=O)N/N=C/c2cccnc2)nnn1-c1nonc1N`, the AC50 is > 30 µM (inactive). Turning to `Cc1ccc(N=CC2=C(O)CC(C)(C)CC2=O)nc1`, the AC50 was > 30 µM (inactive). With `CCOC(=O)N1CCC(N2CCN(S(=O)(=O)c3ccc(NC(C)=O)cc3)CC2)CC1` the figure was > 30 µM (inactive); with `CCOC(=O)c1cc(-c2ccc(F)cc2)n(CC(=O)NCc2ccccn2)c1C`, > 30 µM (inactive); with `CCSc1nc2sc3c(c2c(=O)n1-c1ccccc1C)CCN(C)C3`, > 30 µM (inactive). `CC1=C(C#N)c2nc(N)c(C#N)c(C)c2/C1=C\c1ccc(OCC(=O)O)c(Cl)c1`: the AC50 is 20.4 µM. Regarding `CCSc1nnc2ccc(-c3cccs3)nn12`, the AC50 is > 30 µM (inactive). The value for `COc1cccc(CNc2nc(C(F)(F)F)nc3ccccc23)c1` was > 30 µM (inactive); that for `O=C(O)COc1ccccc1/C=N/NC(=O)CSc1nnc(SCc2ccccc2)s1` was > 30 µM (inactive). With `CCOC(=O)c1c(NC(=O)CN2C(=O)NC3(CCCCC3C)C2=O)sc(C)c1CC` (stereo not drawn) the figure was > 30 µM (inactive); with `O=c1[nH]nc(SCc2ccccc2Cl)n1-c1ccc2c(c1)OCCO2`, 7.11 µM. With `CCOC(=O)c1cc(C)sc1NC(=O)CCC(=O)O` the figure was > 30 µM (inactive); with `C=CCSc1ncnc2c1oc1nc3c(cc12)COC(C)(C)C3`, > 30 µM (inactive); with `CCOc1cc(/C=C2\SC(N)=NC2=O)ccc1O`, 22.9 µM. With `CC(=O)Nc1ccc(NC(=O)c2cc(-n3cnnc3)ccc2Cl)cc1`, the AC50 was > 30 µM (inactive).

On to `COc1cccc(C(C[N+](=O)[O-])c2c(C)[nH]n(-c3ccccc3)c2=O)c1` (stereo not drawn), for which the AC50 is > 30 µM (inactive).

With `COc1cc(CN2CCCN(C)CC2)c([N+](=O)[O-])cc1OC`, the AC50 was > 30 µM (inactive). Take `CCCCC(=O)Nc1nn(CC)c2nc3c(C)cccc3cc12`: the AC50 was > 30 µM (inactive).

For the compound `CN(C)c1ccc(/C=N/NC(=O)c2ccccc2Cl)cc1`, the AC50 was > 30 µM (inactive). As for `O=C1CCCN1CCCNc1ncccc1[N+](=O)[O-]`, the AC50 was > 30 µM (inactive). With `COc1cccc(Nc2nc(N)c([N+](=O)[O-])c(NCc3ccccc3)n2)c1` the figure was 13.4 µM.

For the compound `COc1ccc(C2c3sc(=O)[nH]c3SC3C4CCC(C4)C23)cc1OC` (stereo not drawn), the concentration at half-maximal activity (AC50) was 1.92 µM.

Turning to `COc1cc(/C=N\NC(=O)c2ccc(-c3ccccc3)cc2)cc(Br)c1O`, the AC50 was > 30 µM (inactive). In the case of `CN(C)C(=O)Oc1cccc2c(OC(=O)N(C)C)cccc12`, the AC50 was > 30 µM (inactive). Take `Cn1c(O)c(C=NCCc2c[nH]c3ccccc23)c(=O)n(C)c1=O`: the half-maximal activity concentration (AC50) is 27.9 µM. As to `CC1(C)CC(=O)C(C2c3ccccc3S(=O)(=O)c3ccccc32)C(=O)C1`, the AC50 is > 30 µM (inactive). With `COCc1nnc(NC(=O)CCN2C(=O)c3ccccc3C2=O)s1` the figure was > 30 µM (inactive); with `Cc1oc2c(Cl)c(Cl)c(O)c(CN(C)C)c2c1C(=O)c1ccc(Cl)cc1`, 7.71 µM.
